According to ChEMBL document CHEMBL1158752, “Microbial transformation of 20(S)-protopanaxatriol by Mucor spinosus” (J Nat Prod, 2005):

Legend:
HL-60 (human) = test: Cytotoxicity against human HL60 cells after 48 hrs by MTT assay; conditions: HL-60, 48 h
BGC-823 (human) = test: Cytotoxicity against human BGC823 cells after 48 hrs by MTT assay; conditions: BGC-823, 48 h

Row | Structure (SMILES) | IC50 (HL-60 (human)) | IC50 (BGC-823 (human))
1 | CC(C)=CCC[C@](C)(O)[C@H]1CC[C@]2(C)[C@@H]1[C@H](O)C[C@@H]1[C@@]3(C)CC[C@H](O)C(C)(C)[C@@H]3[C@@H](O)C[C@]12C | 16 µM | 
2 | C/C(=C\CC[C@](C)(O)[C@H]1CC[C@]2(C)[C@H]1[C@H](O)C[C@@H]1[C@@]3(C)CC[C@H](O)C(C)(C)[C@@H]3[C@@H](O)C[C@]12C)CO | 12.3 µM | > 100 µM
3 | C/C(=C/CC[C@](C)(O)[C@H]1CC[C@]2(C)[C@H]1C(=O)C[C@@H]1[C@@]3(C)CC[C@H](O)C(C)(C)[C@@H]3[C@@H](O)C[C@]12C)CO | 10.8 µM | > 100 µM
4 | C/C(=C\CC[C@](C)(O)[C@H]1CC[C@]2(C)[C@H]1C(=O)C[C@@H]1[C@@]3(C)CC[C@H](O)C(C)(C)[C@@H]3[C@@H](O)C[C@]12C)CO | 16.3 µM | > 100 µM
5 | CC(C)=CCC[C@](C)(O)[C@H]1C[C@H](O)[C@]2(C)[C@H]1C(=O)C[C@@H]1[C@@]3(C)CC[C@H](O)C(C)(C)[C@@H]3[C@@H](O)C[C@]12C | 15 µM | > 100 µM
